Laboratory results from paper PMC7438494 (Communications Biology, 2020).
Values joined by “and” are separate entries in the source; they are usually repeats but may differ in a detail not shown here. Equal values may be shown once. Read-outs that look alike come from different tables or passages of the source.

Assays:
[1] = system: yeast mitochondria; assay: Membrane potential of yeast mitochondria, fluorescence quenching of Rhodamine 123; type: biochemical, Saccharomyces cerevisiae; conditions: high concentrations
Method: The membrane potential was assessed by measuring fluorescence quenching of Rhodamine 123 at 488 nm excitation and 525 nm emission in a buffer containing 0.65 M mannitol, 20 mM bis-tris-propane, 2 mM tris-phosphate, 0.3 mM EGTA, pH 6.8 with Rhodamine 123 dissolved in methanol (1.0 µM). Yeast mitochondria were energized with ethanol (0.4% v/v), whereas human mitochondria were energized with glutamate/malate (5 mM/2.5 mM).

[2] = system: hERG channel; conditions: read-out: IC50 for hERG; cited from earlier work
[3] = target: T1, yeast F1Fo ATP synthase (Saccharomyces cerevisiae, UniProt P00854+P61829); assay: Single-particle cryo-EM of yeast F1Fo in nanodiscs with BDQ; type: binding
[4] = system: MCF7 breast cancer cells; conditions: read-out: IC50, mitochondrial oxygen consumption / cell growth; cited from earlier work
[5] = target: luciferase (Photinus pyralis, UniProt P08659); type: biochemical
luciferase, sequence (P08659 whole entry): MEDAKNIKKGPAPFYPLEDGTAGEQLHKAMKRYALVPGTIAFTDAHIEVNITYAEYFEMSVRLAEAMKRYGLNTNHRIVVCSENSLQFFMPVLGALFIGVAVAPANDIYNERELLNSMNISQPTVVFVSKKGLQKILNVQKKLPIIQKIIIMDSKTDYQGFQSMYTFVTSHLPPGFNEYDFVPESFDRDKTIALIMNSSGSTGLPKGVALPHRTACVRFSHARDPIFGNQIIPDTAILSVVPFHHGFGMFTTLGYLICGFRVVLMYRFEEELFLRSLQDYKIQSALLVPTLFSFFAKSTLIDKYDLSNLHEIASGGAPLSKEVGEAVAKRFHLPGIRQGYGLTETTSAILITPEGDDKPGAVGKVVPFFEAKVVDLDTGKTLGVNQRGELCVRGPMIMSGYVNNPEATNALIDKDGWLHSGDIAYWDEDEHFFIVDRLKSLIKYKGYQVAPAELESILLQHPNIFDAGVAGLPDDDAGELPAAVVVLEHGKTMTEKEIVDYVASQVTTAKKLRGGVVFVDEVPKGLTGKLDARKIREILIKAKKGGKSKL

[6] = target: T1, yeast F1Fo ATP synthase; assay: biochemical
[7] = patients treated with Sirturo; placebo 2.5%; cited from earlier work
[8] = target: yeast mitochondrial ATP synthase (yeast SMP) (Saccharomyces cerevisiae, UniProt P00854+P61829); assay: biochemical; conditions: for ATP hydrolysis activity, Exp 1-3: SMP data
[9] = right-hand regression, fits the SMP data

COc1nc2ccc(Br)cc2cc1[C@@H](c1ccccc1)[C@@](O)(CCN(C)C)c1cccc2ccccc12 [BDQ, Bedaquiline]
effect on membrane potential, yeast mitochondria [1]: partial effect
IC50 [2]: ~1700 nM
binding to F1 by cryo-EM density ([3]; F1Fo map 3.9 Å): not bound to F1
binding site by cryo-EM density ([3]; Fo map 4.2 Å): at the interface between the a- and c-subunits
IC50 [4]: ~1000 nM
effect on the activity of luciferase [5]: did not affect
Hillslope, four parameter logistic fit ([6]; BDQ, F1Fo in bicelles): -1.0426
max, four parameter logistic fit ([6]; BDQ, F1Fo in bicelles, […]): 1.167
min, four parameter logistic fit ([6]; BDQ, F1Fo in bicelles, […]): 0.2116
EC50 ([6]; BDQ, F1Fo in bicelles, x in µM BDQ, read-out: EC50, four parameter logistic fit (coefficient) (converted)): 0.0272 µM
ATP hydrolysis activity (ΔA340nm), Exp 1-3 ([6]; F1Fo in bicelles, BDQ 0.0246 uM): 0.6436 and 0.6522 and 0.6471
ATP hydrolysis activity (ΔA340nm), Exp 1-3 ([6]; F1Fo in bicelles, BDQ 0.0372 uM): 0.615 and 0.6977 and 0.5128
ATP hydrolysis activity (ΔA340nm), Exp 1-3 ([6]; F1Fo in bicelles, BDQ 0.0744 uM): 0.5405 and 0.4979 and 0.4346
ATP hydrolysis activity (ΔA340nm), Exp 1-3 ([6]; F1Fo in bicelles, BDQ 0.25 uM): 0.379 and 0.272 and 0.2957
ATP hydrolysis activity (ΔA340nm), Exp 1-3 ([6]; F1Fo in bicelles, BDQ 0.37 uM): 0.3688 and 0.2428 and 0.2764
ATP hydrolysis activity (ΔA340nm), Exp 1-3 ([6]; F1Fo in bicelles, BDQ 0.74 uM): 0.2533 and 0.2466 and 0.2454
ATP hydrolysis activity (ΔA340nm), Exp 1-3 ([6]; F1Fo in bicelles, BDQ 1.49 uM): 0.2105 and 0.2204 and 0.2061
ATP hydrolysis activity (ΔA340nm), Exp 1-3 ([6]; F1Fo in bicelles, BDQ 3.72 uM): 0.2216 and 0.2051 and 0.1755
ATP hydrolysis activity (ΔA340nm), Exp 1-3 ([6]; F1Fo in bicelles, BDQ 7.44 uM): 0.2035 and 0.2344 and 0.1804
ATP hydrolysis activity (ΔA340nm), Exp 1-3 ([6]; F1Fo in bicelles, BDQ 18.61 uM): 0.2777 and 0.1895 and 0.1989
ATP hydrolysis activity (ΔA340nm), Exp 1-3 ([6]; F1Fo in bicelles, BDQ 37.22 uM): 0.2178 and 0.2279 and 0.1889
ATP hydrolysis activity (ΔA340nm), Exp 1-3 ([6]; F1Fo in bicelles, BDQ 52.11 uM): 0.1835 and 0.2422 and 0.1841
ATP hydrolysis activity (ΔA340nm), Exp 1-3 ([6]; F1Fo in bicelles, BDQ 74.45 uM): 0.1959 and 0.193 and 0.2223
inhibition of ATP hydrolysis by yeast F1Fo (extent) ([6]; F1Fo in bicelles, maximal): ~85%
IC50 ([6]; F1Fo in bicelles, n = 3, read-out: IC50 ± SEM, ATP hydrolysis, purified yeast F1Fo): 27 ± 2.5 nM
IC50 ([6]; F1Fo in bicelles, read-out: IC50, ATP hydrolysis, purified yeast F1Fo): ~25 nM
EC50 ([6]; reconstituted in bicelles, n = 3, read-out: EC50, inhibition of the ATPase activity of purified yeast ATP synthase): 0.027 ± 0.0025 µM
risk of death [7]: 11.4%
EC50 [8]: 1280 nM
IC50 ([8]; IC50 ± SEM, ATP hydrolysis, yeast SMP): 1280 ± 250 nM
ATP hydrolysis activity, Exp 1-3 ([8]; BDQ 0.0372 uM): 0.9086 and 0.8616 and 0.8497
ATP hydrolysis activity, Exp 1-3 ([8]; BDQ 0.0744 uM): 0.9524 and 0.7514 and 0.8742
ATP hydrolysis activity, Exp 1-3 ([8]; BDQ 0.3722 uM): 0.7241 and 0.758 and 0.7412
ATP hydrolysis activity, Exp 1-3 ([8]; BDQ 0.7445 uM): 0.71 and 0.6674 and 0.5944
ATP hydrolysis activity, Exp 1-3 ([8]; BDQ 1.489 uM): 0.489 and 0.4879 and 0.5368
ATP hydrolysis activity, Exp 1-3 ([8]; BDQ 3.7225 uM): 0.2859 and 0.2741 and 0.3273
ATP hydrolysis activity, Exp 1-3 ([8]; BDQ 7.4449 uM): 0.2679 and 0.4735 and 0.3345
ATP hydrolysis activity, Exp 1-3 ([8]; BDQ 18.6123 uM): 0.1786 and 0.215 and 0.285
ATP hydrolysis activity, Exp 1-3 ([8]; BDQ 37.2245 uM): 0.1804 and 0.145 and 0.1981
Hillslope, four parameter logistic fit, second regression [8, 9]: -1.0668
max, four parameter logistic fit, second regression [8, 9]: 0.8923
min, four parameter logistic fit, second regression [8, 9]: 0.1853
